What all share (format): cell-based
The subject of one assay is normal human hepatocytes. Kind of assay: 60-agent chemical screen, cell viability (Cell-Titer Glo), hepatocytes.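 Also: cells were plated onto pre-diluted drug concentrations in 384-well plates, and viability was read after 72 h as CellTiter-Glo 2.0 luminescence.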 The note with it: Hepatocyte, 60-agent screen, 72 hours, a value of 10,000 indicates that the drug did not inhibit viability, read-out: absolute IC50, Hepatocytes.
The test system of another assay is Huh-6. Briefly: 60-agent chemical screen, cell viability (Cell-Titer Glo), Huh-6. The note with it: Homo sapiens, 60-agent screen, 72 hours, a value of 10,000 indicates that the drug did not inhibit viability, read-out: absolute IC50, Huh-6.
A further assay concerns HB-214. Kind of assay: 60-agent chemical screen, cell viability (Cell-Titer Glo), HB-214.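 Also: viability read as luminescence once Cell-Titer Glo 2.0 reagent was added to drug-treated cells in 384-well plates.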 Conditions: Homo sapiens; 60-agent screen, 72 hours; a value of 10,000 indicates that the drug did not inhibit viability; read-out: absolute IC50, HB-214.
In a further assay the test system is HepG2. Kind of assay: 60-agent chemical screen, cell viability (Cell-Titer Glo), HepG2.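 Also: luminescence read-out in 384-well plates, with cells plated directly onto drug dilutions of known concentration.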 Conditions: Homo sapiens, 60-agent screen, 72 hours, a value of 10,000 indicates that the drug did not inhibit viability, read-out: absolute IC50, HepG2.

Molecules are shown by their SMILES. Where a name gives a salt, the structure may show the parent alone.

By IC50 is commonly meant the concentration that gives 50% inhibition.

Method for HB-214: (§1) On day 0, cells were trypsinized and plated into a white walled 384-well plate containing pre-diluted known concentrations of various drugs. After 72 hours, an equal volume of Cell-Titer Glo 2.0 (G9243, Promega) was added to each well, incubated at room temperature while rocking in the dark for 15 minutes, followed by luminescence acquisition with a BioTek Synergy HT plate reader (BioTek, Winooski, VT).
Method for HepG2: as §1
Method for Huh-6: as §1
Method for normal human hepatocytes: as §1

Consider `CC1(C)CCC(c2ccc(Cl)cc2)=C(CN2CCN(c3ccc(C(=O)NS(=O)(=O)c4ccc(N[C@H](CCN5CCOCC5)CSc5ccccc5)c(S(=O)(=O)C(F)(F)F)c4)cc3)CC2)C1` [ABT-263], for which the IC50 in the assay with normal human hepatocytes, in the assay on Huh-6, in the assay on HB-214 and in the assay with HepG2 was greater than 10 µM in each case.
As for `CNC(=O)CN1CCC(Oc2cc3c(Nc4cccc(Cl)c4F)ncnc3cc2OC)CC1` [AZD8931], the IC50 was 1.45 µM in the assay with normal human hepatocytes, greater than 10 µM in the assay with Huh-6, greater than 10 µM in the assay with HB-214 and greater than 10 µM in the assay with HepG2.
Consider `Cn1c(=O)n(-c2ccc(C(C)(C)C#N)cc2)c2c3cc(-c4cnc5ccccc5c4)ccc3ncc21` [BEZ235], for which the 50% inhibitory concentration (IC50) in the assay with normal human hepatocytes was 0.048 µM; with Huh-6, greater than 10 µM; in the assay with HB-214, 0.61 µM; in the assay on HepG2, 0.478 µM.
As to `COc1cc2nc(N3CCCN(C)CC3)nc(NC3CCN(Cc4ccccc4)CC3)c2cc1OC` [BIX 01294], the IC50 was determined as 2.04 µM with normal human hepatocytes, 2.81 µM in the assay with Huh-6, 1.72 µM in the assay on HB-214 and 2.9 µM with HepG2.
For `O=C(O)c1ccc2c(c1)nc(Nc1cccc(Cl)c1)c1ccncc12` [CX-4945], the IC50 is greater than 10 µM with normal human hepatocytes, 4.81 µM with Huh-6, greater than 10 µM in the assay with HB-214 and 6.2 µM with HepG2.
As for `COc1ccc(C[C@@H](C)[C@@H](C)Cc2ccc(OC)c(OC)c2)cc1OC` [EM1421], the IC50 in the assay with normal human hepatocytes, in the assay on Huh-6, in the assay with HB-214 and in the assay with HepG2 was greater than 10 µM each time.
As to `CCOC(=O)CCNc1cc(N2CCc3ccccc3CC2)nc(-c2ccccn2)n1` [GSK-J4 HCl], the IC50 in the assay on normal human hepatocytes was greater than 10 µM; in the assay with Huh-6, 4.8 µM; with HB-214, greater than 10 µM; in the assay on HepG2 it was greater than 10 µM.
Take `CC(C)n1nc(-c2ccc3oc(N)nc3c2)c2c(N)ncnc21` [INK 128]: the IC50 in the assay on normal human hepatocytes came to 0.007 µM; with Huh-6 it was 2.43 µM; in the assay on HB-214, 0.001 µM; in the assay with HepG2, 0.126 µM.
As for `CN[C@@H](C)C(=O)N[C@H](C(=O)N1CCC[C@H]1c1nc(C(=O)c2ccc(F)cc2)cs1)C1CCCCC1` [LCL161], the IC50 in the assay on normal human hepatocytes, in the assay with Huh-6, in the assay with HB-214 and in the assay on HepG2 was greater than 10 µM in each case.
With `Cc1cc(-c2ncc(CC(=O)Nc3ccc(-c4cnccn4)cn3)cc2C)ccn1` [LGK974], the IC50 with normal human hepatocytes is 7.72 µM; in the assay on Huh-6, greater than 10 µM; with HB-214, greater than 10 µM; in the assay with HepG2, greater than 10 µM.
For the compound `CCCc1c(OCCCOc2cc(O)c(-c3ccc(F)cc3)cc2CC)cccc1Oc1ccccc1C(=O)O` [LY293111], the IC50 in the assay with normal human hepatocytes, in the assay on Huh-6, in the assay with HB-214 and in the assay with HepG2 was greater than 10 µM in each case.
For the compound `O=C1NC(=O)C(c2cnc3ccccn23)=C1c1cn2c3c(cc(F)cc13)CN(C(=O)N1CCCCC1)CC2` [LY2090314], the IC50 with normal human hepatocytes was 0.837 µM; with Huh-6 it was greater than 10 µM; in the assay on HB-214, greater than 10 µM; with HepG2 it was greater than 10 µM.
For the compound `CC(C)(C)Cn1c(N)nc2ccc(-c3[nH]c(C(C)(C)C)nc3-c3ccc(F)cc3)nc21` [LY2228820], the IC50 was 0.076 µM in the assay on normal human hepatocytes, greater than 10 µM with Huh-6, greater than 10 µM in the assay on HB-214 and greater than 10 µM in the assay with HepG2.
`COc1cccc(OCCCN)c1-c1cc(Nc2cnc(C#N)cn2)n[nH]1` [LY2606368]: the IC50 was greater than 10 µM in the assay with normal human hepatocytes, 5.27 µM in the assay on Huh-6, 4.7 µM in the assay on HB-214 and 5.4 µM in the assay on HepG2.
Regarding `C[C@@H](Oc1ccc2[nH]nc(/C=C/c3cnn(CCO)c3)c2c1)c1c(Cl)cncc1Cl` [LY2874455], the 50% inhibitory concentration (IC50) was 2.17 µM with normal human hepatocytes, greater than 10 µM in the assay with Huh-6, greater than 10 µM in the assay on HB-214 and greater than 10 µM in the assay with HepG2.
As to `CN(C(=O)c1ccc(F)cc1C(F)(F)F)C1CCN(c2nnc(-c3ccnn3C)c3ccccc23)CC1` [LY2940680], the IC50 in the assay on normal human hepatocytes, in the assay with Huh-6, with HB-214 and in the assay on HepG2 was greater than 10 µM throughout.
For `C=CCn1c(=O)c2cnc(Nc3ccc(N4CCN(C)CC4)cc3)nc2n1-c1cccc(C(C)(C)O)n1` [MK-1775], the IC50 in the assay on normal human hepatocytes is greater than 10 µM; in the assay with Huh-6, greater than 10 µM; in the assay on HB-214, 1.18 µM; with HepG2 it was greater than 10 µM.
`C[C@]1(O)C[C@@H](c2nc(-c3ccc4ccc(-c5ccccc5)nc4c3)c3c(N)nccn32)C1` [OSI-906]: the IC50 was 5.9 µM in the assay with normal human hepatocytes, greater than 10 µM in the assay with Huh-6, 1.8 µM in the assay on HB-214 and greater than 10 µM in the assay on HepG2.
As to `CC(=O)c1c(C)c2cnc(Nc3ccc(N4CCNCC4)cn3)nc2n(C2CCCC2)c1=O` [PD 0332991], the IC50 with normal human hepatocytes was greater than 10 µM; in the assay with Huh-6, greater than 10 µM; with HB-214, 1.89 µM; in the assay with HepG2, 6.07 µM.
As for `CC(C)(C(=O)NCC(F)(F)C(F)(F)F)C(=O)N[C@@H]1C(=O)Nc2ccccc2-c2ccccc21` [RO4929097], the concentration for half-maximal inhibition (IC50) in the assay with normal human hepatocytes, in the assay with Huh-6, with HB-214 and in the assay with HepG2 was greater than 10 µM each time.
`CCOc1cc(C(C)(C)C)ccc1C1=N[C@@](C)(c2ccc(Cl)cc2)[C@@](C)(c2ccc(Cl)cc2)N1C(=O)N1CCN(CCCS(C)(=O)=O)CC1` [RO5045337]: the IC50 in the assay with normal human hepatocytes is greater than 10 µM; in the assay on Huh-6, greater than 10 µM; in the assay on HB-214, 4.15 µM; with HepG2, greater than 10 µM.
Take `CC(C)N(CCCNC(=O)Nc1ccc(C(C)(C)C)cc1)C[C@H]1O[C@@H](n2cc(Br)c3c(N)ncnc32)[C@H](O)[C@@H]1O` [SGC0946]: the concentration for half-maximal inhibition (IC50) in the assay with normal human hepatocytes was 0.51 µM; with Huh-6 it was 1.56 µM; in the assay with HB-214 it was greater than 10 µM; in the assay with HepG2 it was 6.39 µM.
As to `CN1CCC(CNc2ccc3ncc(-c4cccc(OC(F)(F)F)c4)n3n2)CC1` [SGI-1776], the IC50 is 0.233 µM in the assay with normal human hepatocytes, 4.62 µM in the assay on Huh-6, 1.53 µM with HB-214 and 1.72 µM with HepG2.
In the same order, the values of `COCCn1c2c([n+](Cc3cnccn3)c1C)C(=O)c1ccccc1C2=O` [YM155] are 0.034 µM, 4.47 µM, 0.26 µM and 0.124 µM.
Consider `Cc1ccc(-c2cc(C(F)(F)F)nn2-c2ccc(S(N)(=O)=O)cc2)cc1` [celecoxib], for which the half-maximal inhibitory concentration (IC50) with normal human hepatocytes, with Huh-6, in the assay with HB-214 and with HepG2 was greater than 10 µM each time.
On to `C[C@@H](Oc1cc(-c2cnn(C3CCNCC3)c2)cnc1N)c1c(Cl)ccc(F)c1Cl` [crizotinib], for which the concentration for half-maximal inhibition (IC50) was 2.16 µM with normal human hepatocytes, 4.42 µM in the assay on Huh-6, 7.64 µM in the assay with HB-214 and 2.17 µM in the assay on HepG2.
In the same order, the values of `Cc1nc(Nc2ncc(C(=O)Nc3c(C)cccc3Cl)s2)cc(N2CCN(CCO)CC2)n1` [dasatinib] are greater than 10 µM, 2.62 µM, greater than 10 µM and 5.02 µM.
Consider `CCc1cnn2c(NCc3ccc[n+]([O-])c3)cc(N3CCCC[C@H]3CCO)nc12` [dinaciclib], for which, in the assay on normal human hepatocytes, the IC50 turned out to be 0.001 µM.
Regarding `Nc1ccccc1NC(=O)c1ccc(CNC(=O)OCc2cccnc2)cc1` [entinostat], the half-maximal inhibitory concentration (IC50) in the assay with normal human hepatocytes is 0.217 µM; in the assay on Huh-6 it was greater than 10 µM; with HB-214, 1.49 µM; with HepG2 it was 0.392 µM.
`CC(C)n1c(/C=C/C(O)CC(O)CC(=O)O)c(-c2ccc(F)cc2)c2ccccc21` (stereo not drawn) [fluvastatin]: the IC50 with Huh-6 was 4.44 µM; with HB-214 it was greater than 10 µM; with HepG2, greater than 10 µM.
Take `C=C[C@@]1(C)CC(=O)[C@]2(O)[C@@]3(C)[C@@H](O)CCC(C)(C)[C@@H]3[C@H](O)[C@H](OC(C)=O)[C@@]2(C)O1` [forskolin]: the IC50 with normal human hepatocytes, with Huh-6, in the assay with HB-214 and in the assay on HepG2 was greater than 10 µM throughout.
On to `Nc1nc(O)c2ncn(COC(CO)CO)c2n1` [ganciclovir], for which the half-inhibitory concentration (IC50) with normal human hepatocytes, with Huh-6, in the assay on HB-214 and with HepG2 was greater than 10 µM each time.
On to `CN(C)C(=N)N=C(N)N` [metformin HCL], for which the IC50 in the assay on normal human hepatocytes, in the assay on Huh-6, in the assay with HB-214 and in the assay on HepG2 was greater than 10 µM throughout.
`Cc1[nH]c2ccccc2c1CCNCc1ccc(/C=C/C(=O)NO)cc1` [panobinostat]: the IC50 with normal human hepatocytes was 0.039 µM; in the assay on Huh-6, 1.14 µM; with HB-214 it was 0.25 µM; in the assay on HepG2, 0.08 µM.
Consider `Cc1ccc(Nc2nccc(N(C)c3ccc4c(C)n(C)nc4c3)n2)cc1S(N)(=O)=O` [pazopanib], for which the IC50 with Huh-6, in the assay with HB-214 and with HepG2 was greater than 10 µM throughout.
Turning to `Nc1nc2[nH]cc(CCc3ccc(C(=O)N[C@@H](CCC(=O)O)C(=O)O)cc3)c2c(=O)[nH]1` [pemetrexed], the IC50 in the assay on normal human hepatocytes, in the assay on Huh-6, in the assay with HB-214 and in the assay with HepG2 was greater than 10 µM in each case.
With `N#CC[C@H](C1CCCC1)n1cc(-c2ncnc3[nH]ccc23)cn1` [ruxolitinib], the IC50 with normal human hepatocytes, in the assay with Huh-6, with HB-214 and in the assay with HepG2 was greater than 10 µM throughout.
With `CO[C@H]1C[C@@H]2CC[C@@H](C)[C@@](O)(O2)C(=O)C(=O)N2CCCC[C@H]2C(=O)O[C@H]([C@H](C)C[C@@H]2CC[C@@H](O)[C@H](OC)C2)CC(=O)[C@H](C)/C=C(\C)[C@@H](O)[C@@H](OC)C(=O)[C@H](C)C[C@H](C)/C=C/C=C/C=C/1C` [sirolimus], the IC50 in the assay on normal human hepatocytes, with Huh-6, in the assay on HB-214 and in the assay with HepG2 was greater than 10 µM in each case.

Values taken from PMC6849653, “Volasertib preclinical activity in high-risk hepatoblastoma” (Oncotarget, 2019).
